Patent US20200377505A1, “BENZIMIDAZOLES AND AZA-BENZIMIDAZOLES, AND METHODS OF USE THEREOF” (Goldfinch Bio., Inc., priority 2017, published 2020)

What was measured:
[1] = target: T1, human TRPC5 (Homo sapiens, UniProt Q9UL62); test: TRPC5 fluorescence-based assay (Ca2+ flux assay in FLIPR format), cells overexpressing TRPC5; format: cell-based; details: 5 μM of test compound, following Carbachol stimulation
T1 construct: expressed in transfected cells; host or cells: HEK 293
T1 sequence (Q9UL62 1-973): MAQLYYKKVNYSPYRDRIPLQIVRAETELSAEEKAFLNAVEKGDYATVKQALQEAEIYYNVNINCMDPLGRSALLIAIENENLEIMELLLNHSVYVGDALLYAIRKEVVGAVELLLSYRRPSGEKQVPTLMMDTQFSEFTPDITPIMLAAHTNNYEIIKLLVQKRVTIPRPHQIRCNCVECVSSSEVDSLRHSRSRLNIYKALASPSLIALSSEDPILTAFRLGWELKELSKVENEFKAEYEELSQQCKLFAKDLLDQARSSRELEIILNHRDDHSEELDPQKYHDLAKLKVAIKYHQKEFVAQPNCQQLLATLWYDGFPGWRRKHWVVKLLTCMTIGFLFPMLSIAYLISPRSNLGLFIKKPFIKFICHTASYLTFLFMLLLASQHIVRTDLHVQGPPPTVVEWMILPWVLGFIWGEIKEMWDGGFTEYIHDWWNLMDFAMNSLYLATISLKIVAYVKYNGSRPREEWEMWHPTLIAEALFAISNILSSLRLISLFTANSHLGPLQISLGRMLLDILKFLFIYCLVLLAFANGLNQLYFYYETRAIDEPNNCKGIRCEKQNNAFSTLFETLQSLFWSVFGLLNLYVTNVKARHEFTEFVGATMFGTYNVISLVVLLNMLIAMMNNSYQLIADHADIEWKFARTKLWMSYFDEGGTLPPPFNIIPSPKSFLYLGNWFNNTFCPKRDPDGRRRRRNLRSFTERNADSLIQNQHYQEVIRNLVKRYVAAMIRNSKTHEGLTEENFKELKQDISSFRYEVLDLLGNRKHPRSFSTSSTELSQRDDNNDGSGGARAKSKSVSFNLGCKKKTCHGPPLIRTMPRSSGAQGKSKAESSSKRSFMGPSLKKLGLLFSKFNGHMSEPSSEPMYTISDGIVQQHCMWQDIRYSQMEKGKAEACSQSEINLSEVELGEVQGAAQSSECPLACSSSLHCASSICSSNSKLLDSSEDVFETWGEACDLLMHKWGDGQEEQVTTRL

[2] = target: T2, human TRPC6 (Homo sapiens, UniProt Q9Y210); test: TRPC6 fluorescence-based assay (Ca2+ flux assay in FLIPR format), cells overexpressing TRPC6; format: cell-based; details: 5 μM of test compound, following Carbachol stimulation
T2 construct: expressed in transfected cells; host or cells: HEK 293
T2 sequence (Q9Y210 1-931): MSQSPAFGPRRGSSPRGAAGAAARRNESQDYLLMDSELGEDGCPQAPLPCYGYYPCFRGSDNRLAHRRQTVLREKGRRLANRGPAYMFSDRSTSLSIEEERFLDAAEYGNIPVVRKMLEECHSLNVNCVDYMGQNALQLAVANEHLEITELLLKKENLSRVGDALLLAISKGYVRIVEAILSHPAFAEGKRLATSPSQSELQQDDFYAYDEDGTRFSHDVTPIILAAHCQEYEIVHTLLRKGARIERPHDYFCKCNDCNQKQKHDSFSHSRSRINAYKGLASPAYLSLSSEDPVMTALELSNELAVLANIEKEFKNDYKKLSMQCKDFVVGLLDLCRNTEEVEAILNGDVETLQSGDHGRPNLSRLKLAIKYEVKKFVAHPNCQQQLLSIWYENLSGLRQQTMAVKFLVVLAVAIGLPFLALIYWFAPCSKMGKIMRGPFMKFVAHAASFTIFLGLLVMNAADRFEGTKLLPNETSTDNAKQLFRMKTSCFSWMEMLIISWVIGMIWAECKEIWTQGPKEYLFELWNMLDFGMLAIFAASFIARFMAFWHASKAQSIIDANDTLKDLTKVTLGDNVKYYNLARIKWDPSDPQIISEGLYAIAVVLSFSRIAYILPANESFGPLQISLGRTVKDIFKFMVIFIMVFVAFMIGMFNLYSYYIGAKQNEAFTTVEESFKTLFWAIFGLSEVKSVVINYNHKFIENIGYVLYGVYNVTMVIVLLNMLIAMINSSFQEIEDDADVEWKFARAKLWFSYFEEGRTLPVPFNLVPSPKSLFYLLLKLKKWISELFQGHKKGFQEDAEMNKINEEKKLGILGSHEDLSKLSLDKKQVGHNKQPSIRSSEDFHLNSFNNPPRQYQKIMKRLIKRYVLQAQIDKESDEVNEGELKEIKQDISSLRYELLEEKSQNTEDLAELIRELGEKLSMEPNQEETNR

Row | SMILES | inhibition at 5 µM [1] [%] | inhibition at 5 µM [2] [%] | Inhibition of TRPC5 (A) ([1]; 5 µM) [%] | Inhibition of TRPC6 (A) ([2]; 5 µM) [%]
1 | COc1ccc(-n2c(SCC(=O)Nc3cccc(S(=O)(=O)N4CCOCC4)c3)nc3ccccc32)cc1 | 69.6 | 6.92 |  | 
2 | Brc1cccc(CNc2nc3ccccc3n2CCN2CCCCC2)c1 | 55 | 51 |  | 
3 | CCN(CC)CCn1c(NCc2ccccc2OC)nc2ccccc21 | 63.4 | 21.9 |  | 
4 | COc1ccccc1CNc1nc2ccccc2n1C(C)C | 57.9 | 53.9 |  | 
5 | Cn1c(=O)c2c(ncn2CC(=O)OCCCC(c2ccc(F)cc2)c2ccc(F)cc2)n(C)c1=O | 60 | 60.7 |  | 
6 | Clc1ccc(Cn2cnc3ccccc32)c(Cl)c1 | 63.5 | 85.5 |  | 
7 | Clc1ccc(Cn2c(NCc3cccs3)nc3ccccc32)cc1 | 72 | 37.5 |  | 
8 | CCCn1c(COc2ccccc2)nc2ccccc21 | 30.2 | 22.8 |  | 
9 | C#CCn1c(Cc2ccc(OC)c(OC)c2)nc2ccccc21 | 66 | 91.5 |  | 
10 | C=CCn1c(NCc2cccs2)nc2ccccc21 | 50.7 | 14.6 |  | 
11 | CCn1c(NC2CCCCC2)nc2ccccc21 | 55.5 | 9.58 |  | 
12 | COc1ccc(CNc2nc3ccccc3n2Cc2ccc(Cl)cc2)cc1OC | 53.4 | 31.3 |  | 
13 | CCCCn1c(NCc2cccs2)nc2ccccc21 [drawing 82] |  |  | 65.84 | 72.31
14 | Cn1c(CC(O)c2ccccc2)nc2ccccc21 (stereo not drawn) | 42.3 | -9.99 |  | 
15 | Fc1cccc(Cl)c1Cn1c(-c2ccco2)nc2ccccc21 | 47.9 | 61.7 |  | 
16 | Nc1ccc(-c2nc3ccccc3n2CCCOc2ccccc2)cc1 | 38.6 | 27.3 |  | 
17 | COc1ccc(CNc2nc3ccccc3n2C)c(OC)c1 | 41.3 | 19.4 |  | 

Row | SMILES | inhibition at 5 µM [1] [%] | inhibition at 5 µM [2] [%] | Inhibition of TRPC5 (A) ([1]; 5 µM) [%] | Inhibition of TRPC6 (A) ([2]; 5 µM) [%]
18 | CC(NCc1nc2ccccc2n1C)C12CC3CC(CC(C3)C1)C2 (stereo not drawn) | 55.2 | 69.7 |  | 
19 | Cc1cccc(OCCn2c(Cc3ccccc3)nc3ccccc32)c1 | 56.4 | 52.9 |  | 
20 | Brc1cccc(CNc2nc3ccccc3n2CCN2CCOCC2)c1 | 45.8 | 18.5 |  | 
21 | CCCCn1c(NCc2nc3ccccc3n2C)nc2ccccc21 | 59.5 | 30.4 |  | 
22 | CCn1c(Cc2ccc(OC)c(OC)c2)nc2ccccc21 | 59 | 94 |  | 
23 | CCCn1c(NCc2c[nH]c3ccccc23)nc2ccccc21 | 70.6 | 54.7 |  | 
24 | CCN(CC)CCn1c(NCc2ccc(OC)cc2OC)nc2ccccc21 | 60.9 | 43.5 |  | 
25 | CCCn1c(NCc2ccco2)nc2ccccc21 | 40.7 | 14.9 |  | 
26 | CCCCn1c(NCc2cccs2)nc2ccccc21 [drawing 80] | 66.1 | 81.3 |  | 
27 | CCCCc1nc2ccccc2n1CC(=O)N1CCCC1c1nc2ccccc2s1 (stereo not drawn) | 46.3 | -0.71 |  | 
28 | O=C(Cn1c(NCCCO)nc2ccccc21)C12CC3CC(CC(C3)C1)C2 | 58.2 | 28.4 |  | 
29 | c1ccc(Cc2nc3ccccc3n2CCCOc2ccccc2)cc1 | 85.9 | 92.5 |  | 
30 | CCCn1c(NCc2nc3ccccc3n2C)nc2ccccc21 | 42.8 | -6.21 |  | 
31 | COc1ccc(Cc2nc3ccccc3n2C(C)c2ccccc2)cc1 (stereo not drawn) | 51 | 45 |  | 
32 | c1ccc(Cc2nc3ccccc3n2CCOc2ccccc2)cc1 | 36.7 | 17.7 |  | 
33 | CCN(CC)c1ccc(CNc2nc3ccccc3n2CCN2CCCCC2)cc1 | 61.2 | 65.7 |  | 
34 | COc1ccc(/C=N/c2nc3ccccc3n2Cc2ccccc2)cc1OC | 74.3 | 90.5 |  | 

The remaining lines, values ahead:

Row | inhibition at 5 µM [1] [%] | inhibition at 5 µM [2] [%] | Inhibition of TRPC5 (A) ([1]; 5 µM) [%] | Inhibition of TRPC6 (A) ([2]; 5 µM) [%] | SMILES
35 | 45.5 | 27.5 |  |  | Cn1c(NCc2cccc3ccccc23)nc2ccccc21
36 | 48 | 22.8 |  |  | Cc1cc(NC(=O)Cn2c(NCc3ccccc3)nc3ccccc32)no1
37 | 28.7 | 30.3 |  |  | CCCCn1c(NCc2ccc(N(CC)CC)cc2)nc2ccccc21
38 | 50 | -8.69 |  |  | CCn1c(NCc2ccccc2O)nc2ccccc21
39 | 32.1 | 81.8 |  |  | Cc1ccc(NC(=O)Cn2c(C)nc3ccccc32)cc1
40 | 66.8 | 27.7 |  |  | Cn1c(NCc2c[nH]c3ccccc23)nc2ccccc21
41 | 39.7 | 70 |  |  | Cc1nc2ccccc2n1CC(=O)Nc1ccc(Cl)cc1
42 | 62.9 | 69.8 |  |  | CCN(CC)CCn1c(NCc2cccc(Br)c2)nc2ccccc21
43 | 52.4 | 84.3 |  |  | Nc1nc2ccccc2n1Cc1ccc(Cl)c(Cl)c1
44 | 39.7 | 27.7 |  |  | Cc1ccc(Cn2c(C(C)(C)C)nc3ccccc32)cc1
45 | 72.7 | 84.1 |  |  | COc1ccccc1NC(=O)Cn1c(C)nc2ccccc21
46 | 38.9 | -7.07 |  |  | CC(C)(C)C(=O)NCCc1nc2ccccc2n1Cc1ccc(Cl)cc1
47 | 34.9 | 35.3 |  |  | CCC(CC)c1nc2ccccc2n1Cc1ccccc1
48 | 51.8 | 51 |  |  | Cc1ccc(Cn2c(CN3CCC(CN)C3)nc3ccccc32)cc1 (stereo not drawn)
49 | 62.7 | 81.9 |  |  | CCCCCn1c(NCc2ccc(N(C)C)cc2)nc2ccccc21
50 | 49.9 | 53.7 |  |  | Nc1nc2ccccc2n1CCOc1ccccc1Cl
51 | 35.7 | 14.5 |  |  | CC(C)n1c(Nc2ccccc2)nc2ccccc21
52 | 45 | 45 |  |  | C=C(C)Cn1c(-c2ccc(N(C)C)cc2)nc2ccccc21
53 | 70 | 76.2 |  |  | Cc1ccccc1OCCn1c(C)nc2ccccc21
54 | 59.1 | 83.6 |  |  | COCCn1c(SCC(=O)Nc2cccc3ncccc23)nc2ccccc21
55 | 50 | 80.6 |  |  | CC(C)c1ccc(CNc2nc3ccccc3n2C)cc1
56 | 48.4 | 34.8 |  |  | Nc1nc2ccccc2n1Cc1ccccc1F
57 | 39.9 | 54.1 |  |  | CCn1c(NCc2cccc(Br)c2)nc2ccccc21
58 | 48.4 | 22.4 |  |  | CC(C)n1c(NCc2ccccc2)nc2ccccc21
59 | 61.4 | 82.8 |  |  | CCCn1c(-c2ccc(Br)cc2)nc2ccccc21
60 | 71.6 | 77.3 |  |  | CCn1c(NCc2ccc(Br)cc2)nc2ccccc21
61 | 73.4 | 89.9 |  |  | COc1ccccc1Cn1c(C)nc2ccccc21
62 | 77.7 | 80.8 |  |  | Cc1nc2ccccc2n1CCNC(=O)c1ccccc1SCc1ccsc1
63 | 53.4 | 41.5 |  |  | COc1ccc(/C=N/c2nc3ccccc3n2Cc2ccc(C)cc2)cc1
